Results reported in patent US20210198204A1, “PRODRUGS OF KALLIKREIN INHIBITORS” (BioCryst Pharmaceuticals, Inc., priority 2016, published 2021).

Assay: Plasma pharmacokinetics of the parent compound after a single oral dose of prodrug
Type: in vivo
Details: single oral dose 10 mg/kg, fasted male Sprague Dawley rats; plasma analyzed for the parent compound; study duration 8 h
Method: Plasma pharmacokinetics of compounds was determined using three male Sprague Dawley rats following a single oral dose administration. All animals were placed in a rat metabolic cage, isolated, and fasted approximately 15 hours prior to dosing. Identifying markers were placed on each animal. Each animal was weighed prior to dose administration. Animals were administered orally with a solution formulation of test compound either in water or a combination of water/propylene glycol, at a dose of 10 mg/kg. Gavage needles were attached to syringes and filled with appropriate amount of test article to be dosed. Blood samples (approximately 500 μL) were collected from three rats at pre-dose (time 0), 0.5, 1, 2, 4, 8, 12 and 24 hr, respectively, depending on study duration. Samples were collected into labeled micro centrifuge tubes containing (heparin solution) as an anticoagulant. Plasma was immediately harvested from the blood by centrifugation at 14,000 rpm for 3 min at 4° C., and stored below −70° C. until bioanalysis. Individual plasma samples were analyzed for the parent compound, 3-[2-(4-carbamimidoyl-phenylcarbamoyl)-5-methoxy-4-vinyl-phenyl]-6-(cyclopropylmethyl-carbamoyl)-pyridine-2-carboxylic acid. As shown in Table-1, the test compounds yielded varying degrees of exposure to the parent compound. The test compounds generally provided for improved bioavailability of the parent compound as compared to dosing of the parent compound in aqueous solutions.

AUC0-last hour (area under the curve) | Structure (SMILES)
B (B = 1,001-10,000 ng/mL) | C=Cc1cc(C(=O)Nc2ccc(C(=N)NC(=O)OCC)cc2)c(-c2ccc(C(=O)NCC3CC3)nc2C(=O)OCc2oc(=O)oc2C)cc1OC [Compound 34a, (5-methyl-2-oxo-1,3-dioxol-4-yl)methyl 6-((cyclopropylmethyl)carbamoyl)-3-(2-((4-(N-(ethoxycarbonyl)carbamimidoyl)phenyl)carbamoyl)-5-methoxy-4-vinylphenyl)picolinate]
B (B = 1,001-10,000 ng/mL) | C=Cc1cc(C(=O)Nc2ccc(C(=N)NC(=O)OCCCCCC)cc2)c(-c2ccc(C(=O)NCC3CC3)nc2C(=O)OCc2oc(=O)oc2C)cc1OC [Compound 35a, (5-methyl-2-oxo-1,3-dioxol-4-yl)methyl 6-((cyclopropylmethyl)carbamoyl)-3-(2-((4-(N-((hexyloxy)carbonyl)carbamimidoyl)phenyl)carbamoyl)-5-methoxy-4-vinylphenyl)picolinate]
C (C >10,000 ng/mL) | C=Cc1cc(C(=O)Nc2ccc(C(=N)NC(=O)OCCCCCC)cc2)c(-c2ccc(C(=O)NCC3CC3)nc2C(=O)OC(C)OC(=O)C(C)C)cc1OC (stereo not drawn) [Compound 36b, 1-(isobutyryloxy)ethyl 6-((cyclopropylmethyl)carbamoyl)-3-(2-((4-(N-((hexyloxy)carbonyl)carbamimidoyl)phenyl)carbamoyl)-5-methoxy-4-vinylphenyl)picolinate]
C (C >10,000 ng/mL) | C=Cc1cc(C(=O)Nc2ccc(C(=N)NC(=O)OCCCCCC)cc2)c(-c2ccc(C(=O)NCC3CC3)nc2C(=O)OC(C)OC(=O)OC(C)C)cc1OC (stereo not drawn) [Compound 39a, 1-((isopropoxycarbonyl)oxy)ethyl 6-((cyclopropylmethyl)carbamoyl)-3-(2-((4-(N-((hexyloxy)carbonyl)carbamimidoyl)phenyl)carbamoyl)-5-methoxy-4-vinylphenyl)picolinate]
C (C >10,000 ng/mL) | C=Cc1cc(C(=O)Nc2ccc(C(=N)NC(=O)OCC)cc2)c(-c2ccc(C(=O)NCC3CC3)nc2C(=O)OC(C)OC(=O)C(C)C)cc1OC (stereo not drawn) [Compound 42a, 1-(isobutyryloxy)ethyl 6-((cyclopropylmethyl)carbamoyl)-3-(2-((4-(N-(ethoxycarbonyl)carbamimidoyl)phenyl)carbamoyl)-5-methoxy-4-vinylphenyl)picolinate]
C (C >10,000 ng/mL) | C=Cc1cc(C(=O)Nc2ccc(C(=N)NC(=O)OCC)cc2)c(-c2ccc(C(=O)NCC3CC3)nc2C(=O)OC(C)OC(=O)OC(C)C)cc1OC (stereo not drawn) [Compound 43a, 1-((isopropoxycarbonyl)oxy)ethyl 6-((cyclopropylmethyl)carbamoyl)-3-(2-((4-(N-(ethoxycarbonyl)carbamimidoyl)phenyl)carbamoyl)-5-methoxy-4-vinylphenyl)picolinate]
A (A = 0-1,000 ng/mL) | C=Cc1cc(C(=O)Nc2ccc(C(=N)NC(=O)OCc3oc(=O)oc3C)cc2)c(-c2ccc(C(=O)NCC3CC3)nc2C(=O)O)cc1OC [Compound 44b, 6-((cyclopropylmethyl)carbamoyl)-3-(5-methoxy-2-((4-(N-(((5-methyl-2-oxo-1,3-dioxol-4-yl)methoxy)carbonyl)carbamimidoyl)phenyl)carbamoyl)-4-vinylphenyl)picolinic acid]
B (B = 1,001-10,000 ng/mL) | C=Cc1cc(C(=O)Nc2ccc(C(=N)NC(=O)OC(C)OC(=O)C(C)C)cc2)c(-c2ccc(C(=O)NCC3CC3)nc2C(=O)OC(C)OC(=O)OC(C)C)cc1OC (stereo not drawn) [Compound 49a, 1-((isopropoxycarbonyl)oxy)ethyl 6-((cyclopropylmethyl)carbamoyl)-3-(2-((4-(N-((1-(isobutyryloxy)ethoxy)carbonyl)carbamimidoyl)phenyl)carbamoyl)-5-methoxy-4-vinylphenyl)picolinate]

Structure (SMILES) | AUC0-last hour (area under the curve)
C=Cc1cc(C(=O)Nc2ccc(C(=N)N)cc2)c(-c2ccc(C(=O)NCC3CC3)nc2C(=O)OCOC(=O)CN)cc1OC.Cl [Compound 37e, (2-aminoacetoxy)methyl 3-(2-((4-carbamimidoylphenyl)carbamoyl)-5-methoxy-4-vinylphenyl)-6-((cyclopropylmethyl)carbamoyl)picolinate Hydrochloride] | B (B = 1,001-10,000 ng/mL)
C=Cc1cc(C(=O)Nc2ccc(C(=N)NC(=O)OCCCCCC)cc2)c(-c2ccc(C(=O)NCC3CC3)nc2C(=O)OC(C)OC(=O)OC(C)(C)C)cc1OC (stereo not drawn) [Compound 41a, 1-((tert-butoxycarbonyl)oxy)ethyl 6-((cyclopropylmethyl)carbamoyl)-3-(2-((4-(N-((hexyloxy)carbonyl)carbamimidoyl)phenyl)carbamoyl)-5-methoxy-4-vinylphenyl)picolinate] | B (B = 1,001-10,000 ng/mL)
C=Cc1cc(C(=O)Nc2ccc(C(=N)NC(=O)OCCCCCC)cc2)c(-c2ccc(C(=O)NCC3CC3)nc2C(=O)OCOC(=O)CN)cc1OC [Compound 45b, (2-aminoacetoxy)methyl 6-((cyclopropylmethyl)carbamoyl)-3-(2-((4-(N-((hexyloxy)carbonyl)carbamimidoyl)phenyl)carbamoyl)-5-methoxy-4-vinylphenyl)picolinate] | A (A = 0-1,000 ng/mL)
C=Cc1cc(C(=O)Nc2ccc(C(=N)NC(=O)OC(C)OC(C)=O)cc2)c(-c2ccc(C(=O)NCC3CC3)nc2C(=O)OC(C)OC(=O)OC(C)C)cc1OC (stereo not drawn) [Compound 47a, 1-((isopropoxycarbonyl)oxy)ethyl 3-(2-((4-(N-((1-acetoxyethoxy)carbonyl)carbamimidoyl)phenyl)carbamoyl)-5-methoxy-4-vinylphenyl)-6-((cyclopropylmethyl)carbamoyl) picolinate] | B (B = 1,001-10,000 ng/mL)
C=Cc1cc(C(=O)Nc2ccc(C(=N)NC(=O)OC(C)OC(C)=O)cc2)c(-c2ccc(C(=O)NCC3CC3)nc2C(=O)OC(C)OC(=O)C(C)C)cc1OC (stereo not drawn) [Compound 48b, 1-(isobutyryloxy)ethyl 3-(2-((4-(N-((1-acetoxyethoxy)carbonyl)carbamimidoyl)phenyl)carbamoyl)-5-methoxy-4-vinylphenyl)-6-((cyclopropylmethyl)carbamoyl)picolinate] | C (C >10,000 ng/mL)

Same assay, conditions: single oral dose 10 mg/kg, fasted male Sprague Dawley rats; plasma analyzed for the parent compound; study duration 12 h

AUC0-last hour (area under the curve) | Structure (SMILES)
B (B = 1,001-10,000 ng/mL) | C=Cc1cc(C(=O)Nc2ccc(C(=N)NC(=O)OCC)cc2)c(-c2ccc(C(=O)NCC3CC3)nc2C(=O)OCOC(=O)[C@@H](N)C(C)C)cc1OC [Compound 32c, (S)-((2-amino-3-methylbutanoyl)oxy)methyl 6-((cyclopropylmethyl)carbamoyl)-3-(2-((4-(N-(ethoxycarbonyl)carbamimidoyl)phenyl)carbamoyl)-5-methoxy-4-vinylphenyl)picolinate]
B (B = 1,001-10,000 ng/mL) | C=Cc1cc(C(=O)Nc2ccc(C(=N)NC(=O)OC(C)OC(=O)[C@@H](N)C(C)C)cc2)c(-c2ccc(C(=O)NCC3CC3)nc2C(=O)O)cc1OC (stereo partly drawn) [Compound 33c, 3-(2-((4-(N-((1-(((S)-2-amino-3-methylbutanoyl)oxy)ethoxy)carbonyl)carbamimidoyl)phenyl)carbamoyl)-5-methoxy-4-vinylphenyl)-6-((cyclopropylmethyl)carbamoyl)picolinic acid]
